The values below come from patent US20260272934A1 (The United States of America, as represented by the …, priority 2023, published 2026).

Like-named read-outs stand apart in the source and are kept apart here. Where only a bound is given, the exact number is not on record here.

Data set [1] deals with T1, full-length Plk1 / biotinylated PBIP1 phospho-T78 peptide interaction (Homo sapiens, UniProt P53350).
T1 construct: HA; EGFP; expressed in transfected cells; host or cells: HEK293A cells infected with adenovirus; total lysates
T1 sequence (P53350 whole entry): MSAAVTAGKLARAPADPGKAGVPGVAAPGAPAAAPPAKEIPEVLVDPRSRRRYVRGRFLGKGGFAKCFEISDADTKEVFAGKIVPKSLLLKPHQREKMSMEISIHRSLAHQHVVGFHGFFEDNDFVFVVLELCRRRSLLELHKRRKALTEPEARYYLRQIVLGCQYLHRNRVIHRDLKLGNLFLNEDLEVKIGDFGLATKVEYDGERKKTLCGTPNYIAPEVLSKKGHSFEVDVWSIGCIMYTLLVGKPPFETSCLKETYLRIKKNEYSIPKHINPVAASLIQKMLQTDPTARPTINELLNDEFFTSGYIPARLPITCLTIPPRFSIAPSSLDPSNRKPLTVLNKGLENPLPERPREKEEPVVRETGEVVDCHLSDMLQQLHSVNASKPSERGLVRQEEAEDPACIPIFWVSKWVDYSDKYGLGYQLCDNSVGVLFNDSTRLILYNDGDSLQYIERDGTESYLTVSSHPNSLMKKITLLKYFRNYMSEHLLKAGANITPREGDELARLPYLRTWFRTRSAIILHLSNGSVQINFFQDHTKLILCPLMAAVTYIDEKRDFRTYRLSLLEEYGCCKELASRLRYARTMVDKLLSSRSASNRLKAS
In words: ELISA-based PBD1-binding inhibition assay. The following applies: at least three independent experiments; read-out: ELISA (IC50) Mean ± SEM. For orientation: ELISA stands for enzyme-linked immunosorbent assay.

Data set [2] relates to multiple myeloma-derived L363 cells. The data set can be described thus: Colorimetric MTS cell viability assay. Format: cell-based. As to conditions: for GI50: Homo sapiens, L-363, N.S. = Not significant, read-out: Cell efficacy (GI50) Mean ± SD; for Cell efficacy (GI50) Mean ± SD: N.S. = Not significant. The text has this: • *Data from Park, J. E., et al {Park, 2023 #3387}. **Data from Alverez C. N., et al {Alverez, 2020 #3186}. N. S., Not significant; N. D., Not determined. ^a IC50 values determined from at least three independent experiments except as noted in parentheses. b A colorimetric MTS cell viability assay carried out using multiple myeloma-derived L363 cells.
For orientation: Tetrazolium assays rely on reduction of a dye to a coloured formazan, in cell work by metabolically active cells.

A further data set has as its target PBD1 (Homo sapiens, UniProt P53350). In words: FP-based inhibition assay. In kind it is binding. As to conditions: read-out: PBD1 IC50 ± SD. How it is done:
In the following, PBD1-3 fluorescence polarization (FP) binding assays were carried out for determining the Plk1 specificity. […] All samples were analyzed approximately 30 min after reaction in a 384-well format using the SpectraMax Paradigm multi-mode microplate detection platform (Molecular Devices). Data were analyzed after carrying out at least three independent experiments using GraphPad Prism software version 7.

The subject of a further data set is Plk2 PBD. The data set can be described thus: FP-based inhibition assay. In kind it is binding. As to conditions: N.S. = Not significant. The method, then: (§1) In the following, PBD1-3 fluorescence polarization (FP) binding assays were carried out for determining the Plk1 specificity. FP assays were carried out essentially as described previously {Liu, 2011 #2790; Qian, 2014 #1416}. All samples were analyzed approximately 30 min after reaction in a 384-well format using the SpectraMax Paradigm multi-mode microplate detection platform (Molecular Devices). Data were analyzed after carrying out at least three independent experiments using GraphPad Prism software version 7.

The subject of a further data set is Plk3 PBD. In words: FP-based inhibition assay. Format: binding. As to conditions: N.S. = Not significant. How it is done: as §1
The target of data set [3] is T1, full-length Plk1 / biotinylated PBIP1 phospho-T78 peptide interaction. The following applies: *Data from Park, J. E., et al 2023; read-out: ELISA (IC50) Mean ± SEM; cited from earlier work.
Data set [4] concerns multiple myeloma-derived L363 cells. As to conditions: MTS, *Data from Park, J. E., cited from earlier work.
Data set [5] is described as follows: Solubility remark in Table 1. In kind it is physicochemical.
The conditions of data set [6]: *Data from Park, J. E., et al 2023; cited from earlier work.

PBD1, sequence (P53350 371-594 limits assumed): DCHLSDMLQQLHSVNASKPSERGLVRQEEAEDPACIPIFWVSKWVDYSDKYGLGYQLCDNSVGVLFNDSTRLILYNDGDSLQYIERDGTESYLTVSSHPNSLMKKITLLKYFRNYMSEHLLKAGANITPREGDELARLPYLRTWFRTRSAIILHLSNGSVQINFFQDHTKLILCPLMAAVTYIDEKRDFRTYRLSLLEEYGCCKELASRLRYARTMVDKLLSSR

One may read the IC50 as the concentration that gives 50% inhibition. By GI50 is commonly meant the concentration at which growth is held to half of that of the control. Consider `CCCn1c(=O)c2oc3ccccc3c2n2c(Sc3c([N+](=O)[O-])ncn3C)nnc12` [Compound 8, 1-((1-Methyl-4-nitro-1H-imidazol-5-yl)thio)-4-propylbenzofuro[2,3-e][1,2,4]triazolo[4,3-a]pyrimidin-5(4H)-one], for which, in [1], the IC50 is above 50 µM. Also, in data set [2], the GI50 came out at 8.31 ± 0.56 µM.

As to `CCCn1c(=O)c2sc(C)cc2n2c(=S)[nH]nc12` [Compound 3], the 50% inhibitory concentration (IC50) at PBD1 was 10.2 ± 1.5 nM; in data set [3], 2150 ± 130 nM. In addition, the “Plk2 PBD IC50 ± SD” value in the data set with Plk2 PBD is on record as “N.S”. Also, in the data set with Plk3 PBD, the “Plk3 PBD IC50 ± SD” value was “N.S”. Moreover, the “Cell efficacy (GI50) Mean ± SD” value in data set [4] (et al 2023) is “N.S”.

Turning to `CCCn1c(=O)c2sc(C(C)(C)C)cc2n2c(Sc3c([N+](=O)[O-])ncn3C)nnc12` [Compound 16, 7-(tert-Butyl)-1-((1-methyl-4-nitro-1H-imidazol-5-yl)thio)-4-propylthieno[2,3-e][1,2,4]triazolo[4,3-a]pyrimidin-5 (4H)-one], the IC50 in [1] was above 50 µM. Besides, in data set [2], the GI50 is 4.19 ± 0.15 µM. Also, the “solubility” value in data set [5] was “moderate solubility”.

For `Cc1cc2c(s1)c(=O)n(CC1CC1)c1nnc(Sc3c([N+](=O)[O-])ncn3C)n21` [Compound 6, 4-(Cyclopropylmethyl)-7-methyl-1-((1-methyl-4-nitro-1H-imidazol-5-yl)thio) thieno[2,3-e][1,2,4]triazolo[4,3-a]pyrimidin-5 (4H)-one], in data set [1], the IC50 is above 50 µM. Moreover, the GI50 in data set [2] came to 3.13 ± 0.15 µM. Besides, the “solubility” value in data set [5] is reported as “low solubility”.

Regarding `CCCn1c(=O)c2sccc2n2c(Sc3c([N+](=O)[O-])ncn3C)nnc12` [Compound 12, 1-((1-Methyl-4-nitro-1H-imidazol-5-yl)thio)-4-propylthieno[2,3-e][1,2,4]triazolo[4,3-a]pyrimidin-5 (4H)-one], the IC50 in data set [1] is above 50 µM. For the same molecule, the GI50 in [2] turned out to be 8.4 ± 0.74 µM. For the same molecule, in [5], the “solubility” value is on record as “moderate solubility”.

`CC(=O)N1CCC[C@H]1C(=O)N[C@@H](CC(C)C)C(=O)N[C@@H](Cc1cnc[nH]1)C(=O)N[C@@H](CO)C(=O)N[C@H](C(=O)O)[C@@H](C)OP(=O)(O)O` [Compound 2, PLHSpT, reference compound]: in [2], the “Cell efficacy (GI50) Mean ± SD” value is given as “N.S”. In the data set with Plk2 PBD, the “Plk2 PBD IC50 ± SD” value is “N.S”. For the same molecule, the “Plk3 PBD IC50 ± SD” value with Plk3 PBD is on record as “N.S”.

Consider `Cc1cc2c(s1)c(=O)n(CC1CC1)c1n[nH]c(=S)n21` [Compound 5, 4-(Cyclopropylmethyl)-7-methyl-1-thioxo-2,4-dihydrothieno[2,3-e][1,2,4]triazolo[4,3-a]pyrimidin-5 (1H)-one], for which the IC50 in [1] was 1.66 ± 0.04 µM; on PBD1, 12.8 ± 2.6 nM. Moreover, the “Cell efficacy (GI50) Mean ± SD” value in data set [2] is “N.S”. Further, in the data set on Plk2 PBD, the “Plk2 PBD IC50 ± SD” value is “N.S”. Further, the “Plk3 PBD IC50 ± SD” value in the data set with Plk3 PBD is listed as “N.S”.

For the molecule `CCCn1c(=O)c2sc3ccccc3c2n2c(Sc3c([N+](=O)[O-])ncn3C)nnc12` [Compound 18, 1-((1-Methyl-4-nitro-1H-imidazol-5-yl)thio)-4-propylbenzo[4,5]thieno[2,3-e][1,2,4]triazolo[4,3-a]pyrimidin-5 (4H)-one], the IC50 in data set [1] was above 50 µM. Moreover, the 50% growth inhibitory concentration (GI50) in [2] is 7.05 ± 0.27 µM.

In the case of `CCCn1c(=O)c2sc(Cl)cc2n2c(Sc3c([N+](=O)[O-])ncn3C)nnc12` [Compound 14, 7-Chloro-1-((1-methyl-4-nitro-1H-imidazol-5-yl)thio)-4-propylthieno[2,3-e][1,2,4]triazolo[4,3-a]pyrimidin-5 (4H)-one], the concentration for half-maximal inhibition (IC50) in data set [1] is above 50 µM. The GI50 in [2] was determined as 6.04 ± 0.17 µM.

`CCCn1c(=O)c2oc3cccc(F)c3c2n2c(Sc3c([N+](=O)[O-])ncn3C)nnc12` [Compound 10, 10-Fluoro-1-((1-methyl-4-nitro-1H-imidazol-5-yl)thio)-4-propylbenzofuro[2,3-e][1,2,4]triazolo[4,3-a]pyrimidin-5 (4H)-one]: the IC50 in [1] was above 50 µM. The GI50 in data set [2] was found to be 7.53 ± 0.43 µM.

Turning to `CC(=O)N1CCC[C@H]1C(=O)N[C@@H](CC(C)C)C(=O)N[C@@H](Cc1cnc[nH]1)C(=O)N[C@@H](CO)C(=O)N[C@H](C(=O)O)[C@@H](C)O` [Compound 1, PLHST, reference compound], the “Cell efficacy (GI50) Mean ± SD” value in data set [2] was “N.S”.

For `CCCn1c(=O)c2sc(C)cc2n2c(Sc3c([N+](=O)[O-])ncn3C)nnc12` [Compound 4], the IC50 in [3] is above 50000 nM. Further, in data set [4] (et al 2023, read-out: Cell efficacy (GI50) Mean ± SD), the GI50 was 4.88 ± 0.1 µM. The “solubility” value in data set [6] is given as “low solubility”.

In the case of `O=C(CCCCC1SCC2NC(=O)NC21)NCCOCCOCCOCCOCCC(=O)NCCCn1c(=O)c2cc(F)ccc2n2c(=S)[nH]nc12` (centres unmarked) [Compound 22, N-(3-(7-Fluoro-5-oxo-1-thioxo-1,2-dihydro-[1,2,4]triazolo[4,3-a]quinazolin-4 (5H)-yl)propyl)-1-(5-(2-oxohexahydro-1H-thieno[3,4-d]imidazol-4-yl)pentanamido)-3,6,9,12-tetraoxapentadecan-15-amide], the IC50 in data set [1] came out at 9.32 ± 0.17 µM.
